Measurements reported in patent US20110008264A1, “METHOD FOR REPELLING A RODENT, METHOD FOR CAPTURING A RODENT AND RODENT REPELLENT” (Earth Chemical Co., Ltd., priority 2006, published 2011).

Tests used:
[1] = system: mouse (ddY male mouse); experiment: Inhibition zone formation around impregnated filter paper in rearing cage (Test Example 6); type: in vivo; details: 50 μl on filter paper, 16 mice; for Formation rate of inhibition zone: time until inhibition zone is formed
Description: A total of 16 animals of a mouse (ddY male mouse of 7 weeks of age) were released in a rearing cage (16 cm in breadth, 23 cm in length and 20 cm in height). Thereafter, a piece of filter paper (1 cm in width and 10 cm in length) impregnated with 50 μl of essential oil shown in the following Table 4 or 50 μl of water was hung down from the center of the ceiling of the rearing cage, and a period of time until a state in which mice gathered in the periphery in the rearing cage but mice are not present around the filter paper (inhibition zone) is formed was measured.

[2] = system: rodent (mouse); type: in vivo; details: Test Example 1, text; azodicarbonamide at 0.2 g, nitrocellulose at 23 g

Q: Which “Presence of inhibition zone” value [1] does the source give for CCCCCCOC(C)=O [Hexyl acetate] here?
A: present

Q: And the “Formation rate of inhibition zone” value [1]?
A: 24 s

Q: Which “Repelled rodents in comparison with the control” value [2] does the source give for NC(=O)N=NC(N)=O [azodicarbonamide] here?
A: a distinct difference was observed in comparison with the control

Q: With Cc1ccc(C(C)C)cc1 [p-Cymene] as the compound, how does the “Presence of inhibition zone” value [1] read?
A: present

Q: And the “Formation rate of inhibition zone” value [1]?
A: 50 s

Q: What does the source list for CC1=CCC(C(C)C)=CC1 [γ-Terpinene]?
A: Presence of inhibition zone [1]: present; Formation rate of inhibition zone [1]: 23 s
